{"source": "patent US4880804A", "about": "(E. I. Du Pont De Nemours and Company, priority 1988, dated 1989)", "key": {"[1]": {"tested_on": "renal hypertensive rats", "experiment": "Antihypertensive effects in renal hypertensive rats", "assay_type": "in vivo, rat", "conditions": "class symbol", "procedure": "This procedure increases blood pressure by increasing renin production with consequent elevation of AII levels. Compounds are administered orally and/or intravenously via a cannula in the jugular vein. Arterial blood pressure is continuously measured directly through a cartoid artery cannula and recorded using a pressure transducer and a polygraph. Blood pressure levels after treatment are compared to pretreatment levels to determine the antihypertensive effects of the compounds (See Table 4)."}, "[2]": {"biological_target": "AII receptor", "experiment": "Angiotensin II receptor binding, displacement of 3H-AII", "conditions": "read-out: Angiotensin II Receptor Binding IC50; rat adrenal cortical microsomes, 2 nM 3H-AII, 1 hour, room temperature", "procedure": "The reaction mixture contained rat adrenal cortical microsomes (source of AII receptor) in Tris buffer and 2 nM of ^3 H-AII with or without potential AII antagonist. This mixture was incubated for 1 hour at room temperature and the reaction was subsequently terminated by rapid filtration and rinsing through glass microfibre filter. Receptor-bound ^3 H-AII trapped in filter was quantitated by scintillation counting."}, "[3]": {"tested_on": "AII", "conditions": "cited from earlier work"}, "[4]": {"tested_on": "AII", "conditions": "cited from earlier work", "remark": "listed apart in the source"}}, "note": "pIC50: −log10 of the molar value.", "data": [{"smiles": "CCCCc1nc2cc(Cl)ccc2n1Cc1ccc(-c2ccccc2C(=O)O)cc1", "note": "[Example 38]", "values": [{"measurement": "Antihypertensive Effects in Renal Hypertensive Rats, Intravenous Activity", "setting": "[1]", "result": "+ (Significant decrease in blood pressure at 10 mg/kg or less.)"}, {"measurement": "pIC50", "setting": "[2]", "result": 4.96}]}, {"smiles": "CCOC(=O)CCc1nc2ccccc2n1Cc1ccc(NC(=O)c2ccccc2NS(=O)(=O)C(F)(F)F)cc1", "note": "[Example 6]", "values": [{"measurement": "pIC50", "setting": "[2]", "result": 5.55}]}, {"smiles": "CCC=Cc1nc2ccc(CO)cc2n1Cc1ccc(-c2ccccc2C(=O)O)cc1", "note": "[Example 32, 2-(1-Butenyl)-6-hydroxymethyl-1-[(2'-carboxybiphenyl-4-yl)methyl]benzimidazole]", "values": [{"measurement": "Antihypertensive Effects in Renal Hypertensive Rats, Intravenous Activity", "setting": "[1]", "result": "+ (Significant decrease in blood pressure at 10 mg/kg or less.)"}, {"measurement": "Antihypertensive Effects in Renal Hypertensive Rats, Oral Activity", "setting": "[1]", "result": "+ (Significant decrease in blood pressure at 100 mg/kg or less.)"}, {"measurement": "pIC50", "setting": "[2]", "result": 6.30}]}, {"smiles": "CCCCc1nc2cc(CO)ccc2n1Cc1ccc(-c2ccccc2C(=O)O)cc1", "note": "[Example 28, 2-Butyl-1-[(2'-carboxybiphenyl-4-yl)methyl]-5-hydroxymethylbenzimidazole]", "values": [{"measurement": "Antihypertensive Effects in Renal Hypertensive Rats, Intravenous Activity", "setting": "[1]", "result": "+ (Significant decrease in blood pressure at 10 mg/kg or less.)"}, {"measurement": "pIC50", "setting": "[2]", "result": 6.43}]}, {"smiles": "CCCCc1nc2ccc(CO)cc2n1Cc1ccc(-c2ccccc2C(=O)O)cc1", "note": "[Example 27, 2-Butyl-1-[(2'-Carboxybiphenyl-4-yl)methyl]-6-hydroxymethylbenzimidazole]", "values": [{"measurement": "Antihypertensive Effects in Renal Hypertensive Rats, Intravenous Activity", "setting": "[1]", "result": "+ (Significant decrease in blood pressure at 10 mg/kg or less.)"}, {"measurement": "Antihypertensive Effects in Renal Hypertensive Rats, Oral Activity", "setting": "[1]", "result": "+ (Significant decrease in blood pressure at 100 mg/kg or less.)"}, {"measurement": "pIC50", "setting": "[2]", "result": 6.66}]}, {"smiles": "COCc1nc2ccc(CO)cc2n1Cc1ccc(-c2ccccc2C(=O)O)cc1", "note": "[Example 34]", "values": [{"measurement": "Antihypertensive Effects in Renal Hypertensive Rats, Intravenous Activity", "setting": "[1]", "result": "+ (Significant decrease in blood pressure at 10 mg/kg or less.)"}, {"measurement": "pIC50", "setting": "[2]", "result": 5.20}]}, {"smiles": "CCOC(=O)C(Cc1nc2ccccc2n1Cc1ccc(NC(=O)c2ccccc2C(=O)O)cc1)C(=O)OCC", "note": "[Example 1, 3-[1-(4-(2-Carboxybenzamido)benzyl)benzimidazol-2-yl]-2-(carboethoxy)propanoic acid, ethyl ester]", "values": [{"measurement": "pIC50", "setting": "[2]", "result": 5.08}]}, {"smiles": "CCCCc1nc2ccc(C(=O)O)cc2n1Cc1ccc(-c2ccccc2C(=O)O)cc1", "note": "[Example 37]", "values": [{"measurement": "Antihypertensive Effects in Renal Hypertensive Rats, Intravenous Activity", "setting": "[1]", "result": "+ (Significant decrease in blood pressure at 10 mg/kg or less.)"}, {"measurement": "pIC50", "setting": "[2]", "result": 5.24}]}, {"smiles": "CCCCc1nc2ccc(C=O)cc2n1Cc1ccc(-c2ccccc2C(=O)O)cc1", "note": "[Example 31]", "values": [{"measurement": "Antihypertensive Effects in Renal Hypertensive Rats, Intravenous Activity", "setting": "[1]", "result": "+ (Significant decrease in blood pressure at 10 mg/kg or less.)"}, {"measurement": "pIC50", "setting": "[2]", "result": 5.85}]}, {"smiles": "CCOC(=O)CCc1nc2ccccc2n1Cc1ccc(NC(=O)c2ccccc2C(=O)O)cc1", "note": "[Example 2, 3-[1-(4-(2-Carboxybenzamido)benzyl)benzimidazole-2-yl]-2-propanoic acid, ethyl ester]", "values": [{"measurement": "pIC50", "setting": "[2]", "result": 5.68}]}, {"smiles": "CCOC(=O)C=Cc1nc2ccccc2n1Cc1ccc(NC(=O)c2ccccc2NS(=O)(=O)C(F)(F)F)cc1", "note": "[Example 5]", "values": [{"measurement": "pIC50", "setting": "[2]", "result": 4.54}]}, {"smiles": "COCc1nc2cc(CO)ccc2n1Cc1ccc(-c2ccccc2C(=O)O)cc1", "note": "[Example 35]", "values": [{"measurement": "Antihypertensive Effects in Renal Hypertensive Rats, Intravenous Activity", "setting": "[1]", "result": "+ (Significant decrease in blood pressure at 10 mg/kg or less.)"}, {"measurement": "pIC50", "setting": "[2]", "result": 4.68}]}, {"smiles": "CCCCc1nc2cc(C(=O)O)ccc2n1Cc1ccc(-c2ccccc2C(=O)O)cc1", "note": "[Example 36]", "values": [{"measurement": "Antihypertensive Effects in Renal Hypertensive Rats, Intravenous Activity", "setting": "[1]", "result": "+ (Significant decrease in blood pressure at 10 mg/kg or less.)"}, {"measurement": "pIC50", "setting": "[2]", "result": 5.60}]}, {"smiles": "CCCCc1nc2cc(OC)ccc2n1Cc1ccc(-c2ccccc2C(=O)O)cc1", "note": "[Example 30]", "values": [{"measurement": "Antihypertensive Effects in Renal Hypertensive Rats, Intravenous Activity", "setting": "[1]", "result": "+ (Significant decrease in blood pressure at 10 mg/kg or less.)"}, {"measurement": "pIC50", "setting": "[2]", "result": 6.00}]}, {"smiles": "CCCC=Cc1nc2ccccc2n1Cc1ccc(NC(=O)c2ccccc2C(=O)O)cc1", "note": "[Example 3, 1-[4-(2-Carboxybenzamido)benzyl]-2-(1-pentenyl)benzimidazole]", "values": [{"measurement": "pIC50", "setting": "[2]", "result": 5.36}]}, {"smiles": "CCCCc1nc2ccc(OC)cc2n1Cc1ccc(-c2ccccc2C(=O)O)cc1", "note": "[Example 29, 1-[(2'-Carboxybiphenyl-4-yl)methyl]-2-butyl-6-methoxybenzimidazole]", "values": [{"measurement": "Antihypertensive Effects in Renal Hypertensive Rats, Intravenous Activity", "setting": "[1]", "result": "+ (Significant decrease in blood pressure at 10 mg/kg or less.)"}, {"measurement": "pIC50", "setting": "[2]", "result": 6.04}]}, {"smiles": "CCCCc1nc2ccc(Cl)cc2n1Cc1ccc(-c2ccccc2C(=O)O)cc1", "note": "[Example 33, 2-Butyl-1-[(2'-carboxybiphenyl-4-yl)methyl]-6-chlorobenzimidazole]", "values": [{"measurement": "Antihypertensive Effects in Renal Hypertensive Rats, Intravenous Activity", "setting": "[1]", "result": "+ (Significant decrease in blood pressure at 10 mg/kg or less.)"}, {"measurement": "Antihypertensive Effects in Renal Hypertensive Rats, Oral Activity", "setting": "[1]", "result": "+ (Significant decrease in blood pressure at 100 mg/kg or less.)"}, {"measurement": "pIC50", "setting": "[2]", "result": 5.30}]}, {"smiles": "CCOC(=O)C=Cc1nc2ccccc2n1Cc1ccc(NC(=O)c2ccccc2C(=O)O)cc1", "note": "[Example 4, 3-[1-(4-(2-Carboxybenzamido)benzyl)benzimidazol-2-yl]propenoic acid, ethyl ester]", "values": [{"measurement": "pIC50", "setting": "[2]", "result": 4.82}]}, {"smiles": "CNCC(=O)N[C@@H](CCCN=C(N)N)C(=O)N[C@H](C(=O)N[C@@H](Cc1ccc(O)cc1)C(=O)N[C@H](C(=O)N[C@@H](Cc1cnc[nH]1)C(=O)N1CCC[C@H]1C(=O)N[C@@H](C)C(=O)O)C(C)C)C(C)C", "note": "[Saralasin]", "values": [{"measurement": "Antagonism of the actions of AII", "setting": "[3]; in words", "result": "one of the most potent competitive antagonists of the actions of AII"}, {"measurement": "Block of the effects of AII on blood pressure", "setting": "[3]; pithed rats", "result": "blocks the effects of AII on the blood pressure of pithed rats"}, {"measurement": "Lowering of arterial pressure", "setting": "[4]; elevated pressure dependent on circulating AII", "result": "lower arterial pressure in mammals and man when the (elevated) pressure is dependent on circulating AII"}, {"measurement": "Oral effectiveness", "setting": "[4]; oral", "result": "oral doses being ineffective"}, {"measurement": "Duration of pharmacological effects", "setting": "[4]; parenteral administration", "result": "relatively short-lasting"}, {"measurement": "Pressor effects (agonistic character)", "setting": "[4]; pressure not sustained by AII", "result": "generally elicits pressor effects when the pressure is not sustained by AII"}]}]}
